From patent US20090264664A1, “PREPARATION FOR EXTERNAL APPLICATION COMPRISING SALT OF MAST CELL DEGRANULATION INHIBITOR HAVING CARBOXYL GROUP WITH ORGANIC AMINE” (MEDRX CO., LTD., priority 2005, published 2009)

Test: Solubility of tranilast in various solvents with or without triisopropanolamine (Example 3)
Format: physicochemical
Parameters: key: ∘: complete dissolution of tranilast; x: no dissolution of tranilast
Conditions: tranilast 1 wt %
Description: For preparation of test solutions (blending corresponding to 1 mol of triisopropanolamine), tranilast (1 wt %) and triisopropanolamine (0.56 wt %) were added, and glycerol, propylene glycol, butylene glycol, salicylic acid ethylene glycol, diethyl sebacate and isopropyl myristate were used as a balance to achieve 100 wt %, whereby each test solution was prepared.
For preparation of comparison control (without triisopropanolamine), tranilast (1 wt %) was added, and propylene glycol, salicylic acid ethylene glycol, diethyl sebacate and isopropyl myristate were used as a balance to achieve 100 wt %, whereby each test solution was prepared.
Using the test solutions and comparative controls prepared above, the solubility of tranilast in various solvents with or without triisopropanolamine was examined.

CC(O)CN(CC(C)O)CC(C)O.COc1ccc(/C=C/C(=O)Nc2ccccc2C(=O)O)cc1OC [1:1 salt with triisopropanolamine]
solubility of tranilast in solvent (butylene glycol): ∘
solubility of tranilast in solvent (diethyl sebacate): ∘
solubility of tranilast in solvent (glycerol): ∘
solubility of tranilast in solvent (isopropyl myristate): x
solubility of tranilast in solvent (propylene glycol): ∘
solubility of tranilast in solvent (salicyl acid ethylene glycol): ∘
